Reference: patent publication US20030158041A1, “Methods of and compositions for plant defoliation” (priority 2001, published 2003)

System: American upland cotton
Test: Spray treatment of mature American upland cotton, evaluated 10, 14 and 21 days after treatment
Assay type: in vivo
[1] = 10 days after treatment, (+) EBNG = 0.13 lb/acre
[2] = 14 days after treatment, (+) EBNG = 0.13 lb/acre
[3] = 21 days after treatment, (+) EBNG = 0.13 lbs/acre

`CCC(NC(=N)N[N+](=O)[O-])c1ccccc1` (single isomer, unassigned; (+)) [(+) EBNG, (+)-1-(α-ethylbenzyl)-3-nitroguanidine] was tested, and the “% Dead Leaves On Plants” value [1] was 8.3%, the “% Dropped Leaves” value [1] was 90.0% and the “% Dead Leaves On Plants” value [2] was 5.7%. For the same molecule, the “% Dropped Leaves” value [2] was 93.0%, the “% New Growth Leaves” value [2] was 1.0% and the “% Open Fruits” value [2] was 96.0%. The “% New Growth Leaves” value [3] was 3.7% and the “% Open Fruits” value [3] was 98.3%.
